“Also recorded” adds a separate entry of the source. No end group written: not given here.

The test system of one series is MDA-MB-231. Briefly: Cytotoxicity MTT assay, MDA-MB-231. Type of series: cell-based. The following applies: MDA-MB-231 human breast cancer cells; 0.1 µM to 100 µM, duplicate, 5 h, 37°C; MTT 1 h, absorbance 600 nm; positive control Taxol. As for the experimental part: (§1) The cytotoxicity of the peptides on breast cancer cells (MDA-MB-231) and non-cancerous human cells (HFF-1) was measured using a standard MTT (3-(4,5-dimethylthiazol-2-yl)-2,5-diphenyltetrazolium bromide, Sigma-Aldrich) assay. Cells were seeded in a 96-well flat-bottomed plate at a concentration of 5.0×10^4 cells/cm^2 in DMEM in 10% FBS, or DMEM in 15% FBS, and incubated at 37°C in an atmosphere of 5% CO2 in air. After 24 h, peptides were added in duplicate at the concentrations ranging from 0.1 µM to 100 µM to make up a final volume of 100 µL in each well and then incubated for 5 h. MTT solution (10 µL) in PBS (5 mg/mL) was added to each well and maintained for 1 h. Media was removed, and formazan crystals were resuspended in 100 µL of DMSO. Absorbance was then read at 600 nm. Taxol was used as the positive control.

Series [1] relates to bovine pancreatic trypsin. Briefly: Trypsin inhibitory assay. Particulars: substrate L-BAPNA, 50 mM Tris/20 mM CaCl2 pH 8.2, 10 min, room temperature; four concentrations, initial 750 µM or 1.5 mM with 10-fold dilutions; triplicate; absorbance 410 nm; positive control MCoTI-II. The class given is biochemical. Here is the method: A stock solution of bovine pancreatic trypsin at 4.5 mg/mL in 1 mM HCl was prepared and stored on ice. Firstly, the trypsin stock was diluted to 0.45 mg/mL in 50 mM Tris/20 mM CaCl2 (pH 8.2) buffer. Next, the substrate was prepared by dissolving 0.435 mg/mL L-BAPNA (Nα-benzoyl-L-arginine 4-nitroanilide hydrochloride, Sigma-Aldrich) in 1% DMSO/99% 50 mM Tris/20 mM CaCl2 buffer (pH 8.2). Four different peptide concentrations were tested starting from initial concentrations of 750 µM or 1.5 mM with 10-fold dilutions. The reaction mixture was prepared by dispensing 15 µL of 50 mM Tris/20 mM CaCl2 (pH 8.2) buffer, 5 µL of 0.45 mg/mL trypsin and followed by 5 µL of the tested peptide into each well of a 96-well plate in triplicate. A control without the tested peptide was used to measure 100% trypsin activity. Subsequently, 125 µL of 0.435 mg/mL substrate was added to the plate and incubated for 10 min at room temperature. The reaction was stopped by adding 25 µL of 30% acetic acid. Absorbance was measured at 410 nm using a Powerwave XS plate reader (Bio-Tek). Trypsin inhibition was calculated from the absorbance in the presence of the tested peptide as a percent of absorbance of the uninhibited trypsin [39]. MCoTI-II was used as the positive control.

The test system of series [2] is Plasmodium falciparum (FCR-3 strain). Briefly: Antimalarial assay. Particulars: FCR-3 strain in human RBCs (type A), 5% hematocrit, 0.3% parasitemia, GIT medium, 37°C, 72 h; various concentrations, duplicate; Giemsa smears, microscopy; positive control artemisinin. The class given is cell-based. As for the experimental part:
Plasmodium falciparum (FCR-3 strain) was maintained in vitro at 37°C in GIT medium containing human red blood cells (RBCs, type A) at 5% hematocrit in 24-well plates which were put in a CO2 incubator (5% CO2, 5% O2 and 90% N2) at 37°C [41]. Peptides were added in duplicate in distilled water or 0.25 M phosphoric acid and prepared in various concentrations. 10 µL of this solution was added to individual cells of the plates. Erythrocytes with 0.3% parasitemia were added to the cells of the above plates containing 990 µL of culture medium. The plates were incubated at 37°C for 72 h in the CO2 incubator. To test the antimalarial activity of peptides, thin smears were prepared from each culture and stained with Giemsa. Erythrocytes were examined under microscopy. Artemisinin was used as the positive control. Drug-free control cultures were assayed simultaneously, [43].

The test system of a further series is HFF-1. Nature of the series: Cytotoxicity MTT assay, HFF-1. Particulars: HFF-1 non-cancerous human cells; 0.1 µM to 100 µM, duplicate, 5 h, 37°C; MTT 1 h, absorbance 600 nm; positive control Taxol. The class given is cell-based. Here is the method:
as §1

With “GCAGKACNLLGLTCDAGCFCRPDGVGIVAGVCV (disulfide (positions not given here)) [MCh-2, PDB 2M2R]”, the cytotoxic activity result in the series with MDA-MB-231 and in the series with HFF-1 was “not active” in each case. The trypsin inhibitory activity result in series [1] is on record as “not active; also recorded: not trypsin inhibitors”. Also, the antimalarial activity entry in series [2] is on record as “not active”.

For “GCAGKSCNILGSDPCDAGCFCLPVGIVAGVCV (disulfide (positions not given here)) [MCh-1, PDB 2M2Q]”, the cytotoxic activity result in the series on MDA-MB-231 and in the series with HFF-1 was “not active” in each case. The trypsin inhibitory activity entry in series [1] is reported as “not active; also recorded: not trypsin inhibitors”. In addition, in series [2], the antimalarial activity entry was “not active”.

Values taken from publication PMC3792974, “Novel Inhibitor Cystine Knot Peptides from Momordica charantia” (PLoS ONE, 2013).
